Experiment [1] deals with KB. Put plainly: Cytotoxicity against human KB cells after 72 hrs. The format is functional, cell-based.
For experiment [2], the system named is Entamoeba histolytica. Put plainly: Antiamoebic activity against Entamoeba histolytica NIH 200 after 72 hrs by microdilution technique. The format is functional, organism-based. As to conditions: NIH 200, 72 h.
Experiment [3] deals with Plasmodium falciparum. Put plainly: Antiplasmodial activity against multi drug-resistant Plasmodium falciparum K1 in erythrocytes by [3H]hypoxanthine uptake. Type of experiment: functional, organism-based.
Experiment [4] has as its system Entamoeba histolytica. Put plainly: Antiamoebic activity against Entamoeba histolytica NIH 200 in guinea pig at 3 mg/kg, po. The format is functional, organism-based. Also on record: dose 3 mg/kg.
In experiment [5] the test system is Entamoeba histolytica. The experiment in a line: Antiamoebic activity against Entamoeba histolytica NIH 200 in guinea pig at 2 mg/kg, iv. The format is functional, organism-based. Also on record: dose 2 mg/kg.

Structures are written as SMILES. Where a name gives a salt, the structure may show the parent alone. Calls of active or inactive are those of the source. No cut-off for these calls is given here.

By IC50 is commonly meant the concentration at which inhibition is half-maximal. The low end stands for inhibition by little substance, the high end for a need for much substance. Take `COc1ccc2c(c1OC)CN(C)CCc1cc3c(cc1C(=O)C2)OCO3` [ALLOCRYPTOPINE]: the figures for the IC50 in experiment [1], in experiment [2] and in experiment [3] were over 338 µM, 135 µM and 5.08 µM, respectively.

As for `COc1ccc2cc3[n+](cc2c1OC)CCc1cc2c(cc1-3)OCO2` [BERBERINE CHLORIDE], the outcome in experiment [4] and in experiment [5] was Active. Also, the IC50 was found to be 7.32 µM in experiment [1], 111 µM in experiment [2] and 0.968 µM in experiment [3].

Consider `COc1ccc2c(c1OC)CN1CCc3cc4c(cc3[C@@H]1C2)OCO4` [CANADINE], for which the IC50 in experiment [1] is over 734 µM; in experiment [2], 126 µM; in experiment [3] it was over 147 µM.

Consider `COc1ccc2c(c1OC)-c1c(OC)c(OC)cc3c1[C@H](C2)NCC3` [CATALPIFOLINE], for which the IC50 in experiment [1] was over 733 µM; in experiment [2], 147 µM; in experiment [3], 24.1 µM.

On to `COc1cc2c(cc1O)-c1cc3ccc(OC)c(OC)c3c[n+]1CC2` [COLUMBAMINE CHLORIDE], for which the IC50 in experiment [1] was 77.9 µM; in experiment [2], 156 µM; in experiment [3], 1.92 µM.

For `COc1cc2c3c(c1O)-c1c(ccc(OC)c1OC)C[C@@H]3N(C)CC2` [CORYDINE], the IC50 in experiment [1] was over 733 µM; in experiment [2] it was 90.6 µM; in experiment [3], 22.3 µM.

As for `COc1cc2c(cc1O)CC[n+]1cc3cc(OC)c(OC)cc3cc1-2` [DEHYDRODISCRETINE CHLORIDE], the IC50 in experiment [1] is over 335 µM; in experiment [2], 66.9 µM; in experiment [3], 0.639 µM.

Consider `COc1cc2cc3c4c(c(OC)c5c(c4c2cc1OC)OCO5)CCN3C` [DEHYDROOCOTEINE], for which the IC50 in experiment [1] is over 341 µM; in experiment [2] it was 136 µM; in experiment [3] it was 5.78 µM.

On to `CC[C@H]1CN2CCc3cc(OC)c(OC)cc3[C@@H]2C[C@@H]1C[C@H]1NCCc2cc(OC)c(OC)cc21` [EMETINE HYDROCHLORIDE], for which, in experiment [2], 2.23 µM corresponded to half-maximal inhibition (IC50).

In the case of `COc1ccc2c(c1O)-c1c(OC)c(OC)cc3c1[C@H](C2)N(C)CC3` [ISOCORYDINE], the IC50 in experiment [1] was over 733 µM; in experiment [2], over 147 µM; in experiment [3] it was 37 µM.

Regarding `COc1cc2c(cc1O)CC[n+]1cc3c(OC)c(OC)ccc3cc1-2` [JATRORRHIZINE CHLORIDE], the IC50 is over 335 µM in experiment [1], 82.7 µM in experiment [2] and 3.15 µM in experiment [3].

On to `COc1ccc2c(c1O)-c1c(O)c(OC)cc3c1[C@H](C2)[N+](C)(C)CC3` [MAGNOFLORINE IODIDE], for which the results for the IC50 in experiment [1], in experiment [2] and in experiment [3] were over 533 µM, 111 µM and over 107 µM, respectively.

As to `COc1ccc2c(c1OC)[C@]13CCC(=O)[C@]4(O)O[C@H]2C[C@]14N(C)CC3` [METAPHANINE HYDROBROMIDE], the values for the IC50 in experiment [1], in experiment [2] and in experiment [3] were over 586 µM, 58.6 µM and over 117 µM, respectively.

As for `COc1cc2c3c(c1O)-c1c(ccc(OC)c1OC)C[C@@H]3NCC2` [NORCORYDINE], the IC50 is over 733 µM in experiment [1], 76.4 µM in experiment [2] and 3.08 µM in experiment [3].

As to `COC1=C[C@]23CCN(C)[C@H](Cc4cc(OC)c(OC)cc42)C3=CC1=O` [O-METHYLFLAVINANTINE], the IC50 in experiment [1] is over 734 µM; in experiment [2] it was 73.4 µM; in experiment [3] it was 207 µM.

Take `COc1cc2c(cc1OC)-c1c3c(c(OC)c4c1[C@H](C2)N(C)CC4)OCO3` [OCOTEINE]: the IC50 was 74.3 µM in experiment [1], 51.2 µM in experiment [2] and 34.8 µM in experiment [3].

For `COc1cc([C@@H]2c3cc4c(cc3[C@H](O)[C@H]3COC(=O)[C@H]23)OCO4)cc(OC)c1OC` [PODOFILOX], the IC50 in experiment [1] was 0.008 µM.

On to `COC1=C[C@]23CCN(C)[C@H](Cc4ccc(OC)c(O)c42)C3=CC1=O` [SALUTARIDINE], for which the IC50 in experiment [1] is over 764 µM; in experiment [2], 76.4 µM; in experiment [3] it was over 95 µM.

Consider `COC1=C[C@@H]2[C@@H]3Cc4ccc(OC)c(O)c4[C@]2(CCN3C)CC1=O` [SINOMENINE], for which the results for the IC50 in experiment [1], in experiment [2] and in experiment [3] were over 759 µM, 56.2 µM and over 152 µM, respectively.

`COc1cc2c(cc1OC)-c1c3c(c(OC)c4ccnc(c14)C2=O)OCO3` [THALICMININE]: the values for the IC50 in experiment [1], in experiment [2] and in experiment [3] were over 685 µM, 75.1 µM and 16.2 µM, respectively.

For `COc1c(O)ccc2cc3[n+](cc12)CCc1cc2c(cc1-3)OCO2` [THALIFENDINE], the IC50 in experiment [1] is over 699 µM; in experiment [2] it was 116 µM; in experiment [3] it was 7.91 µM.
